Patent US8076332B2, “N- (2-aminophenyl) benzamide derivative having urea structure” (Santen Pharmaceutical Co., Ltd., priority 2006, dated 2011)

Tested on: human trabecular meshwork cell line (TM-1 cells)
Assay: Test for evaluation of effect of morphological change on trabecular meshwork cells (cell shape index, CSI)
Assay type: cell-based
Conditions: final concentration 10 μM, incubation 24 hours, CSI=4π×(Cell Area)/(Cell Perimeter)^2, average per group, Control 0.730
Experimental: 1. Test for Evaluation of Effect of Morphological Change on Trabecular Meshwork Cells
As a method for evaluating a cellular morphological change, an evaluation system using the cell shape index (hereinafter referred to as “CSI”) as an index has been reported in The Journal of Clinical Investigation, 103, 1141-1150 (1999). Therefore, according to the method described in the above document, an effect of morphological change of the present compounds on trabecular meshwork cells was evaluated.
A human trabecular meshwork cell line (hereinafter referred to as “TM-1 cells”) reported in Investigative Opthalmology & Visual Science, 43, 151-161 (2002) was used.
Culture medium 1: A reagent was prepared by adding fetal bovine serum (10%), L-glutamine (2 mM), amphotericin B (2.5 μg/mL), and gentamicin (25 μg/mL) to Dulbecco's modified Eagle medium (hereinafter referred to as “D-MEM”).
Culture medium 2: Fetal bovine serum (3%), L-glutamine (2 mM), amphotericin B (2.5 μg/mL), and gentamicin (25 μg/mL) were added to D-MEM.
Cell staining liquid: A mixed liquid of Calcein-AM (16 μM) and Hoechst 33342 (40 μM) was prepared by diluting a Calcein-AM solution (cytoplasmic staining reagent, manufactured by Dojindo Laboratories) and a Hoechst 33342 solution (nuclear staining reagent, manufactured by Dojindo Laboratories) with D-MEM containing L-glutamine (2 mM), amphotericin B (2.5 μg/mL), and gentamicin (25 μg/mL).
TM-1 cells subcultured at 37° C. in a 8% carbon dioxide gas atmosphere were treated with a trypsin/EDTA solution (0.05% trypsin and 0.53 mM tetrasodium ethylenediaminetetraacetate) at 24 hours before performing a drug treatment mentioned below and seeded on a 96-well culture plate. The culture medium 1 was used for the subculture of the cells. The culture medium 2 was used for the cell culture after seeding the cells on the plate.
A test compound was dissolved in dimethyl sulfoxide, whereby a 5 mM solution was prepared. Then, the resulting solution was diluted with the culture medium 2, whereby a 200 μM test compound solution was prepared.
It has been reported that Y-27632 which is a Rho kinase inhibitor induces a morphological change in trabecular meshwork cells in Investigative Ophthalmology & Visual Science, 42, 137-144 (2001). Therefore, Y-27632 (produced according to the method described in WO 90/05723) was used as a positive control, and dissolved in dimethyl sulfoxide in the same manner as the test compound, whereby a 5 mM solution was prepared, and then, the resulting solution was diluted with the culture medium 2, whereby a 200 μM positive control compound solution was prepared.
1) To a 96-well culture plate, a solution of TM-1 cells adjusted to a cell density of […] was added in an amount of 95 μL (1.5×10^4 cells) per well.
2) Incubation was performed at 37° C. in a 8% carbon dioxide gas atmosphere for 24 hours.
3) The test compound solution or positive control compound solution was added in an amount of 5 μL per well (the final concentration of the test compound or positive control compound was 10 μM). As a control, the culture medium 2 containing dimethyl sulfoxide (4%) was added in an amount of 5 μL per well.
4) Incubation was performed at 37° C. in a 8% carbon dioxide gas atmosphere for 24 hours.
5) The cell staining liquid was added in an amount of 10 μL per well.
6) Incubation was performed at 37° C. in a 8% carbon dioxide gas atmosphere for 1 hour to stain the cells.
7) A 37% formaldehyde solution was added in an amount of 10 μL per well.
8) Incubation was performed at room temperature for 1 hour to fix the cells.
9) Washing with phosphate-buffered saline was performed.
10) Using Array Scan Vti HCS reader (manufactured by Cellomics), images of stained cells magnified with a 20 times objective lens were captured in 80 fields (10 fields×8 wells) per test compound addition group.
11) CSI was calculated for each cell and an average value was obtained for each test compound addition group. […]

Compound | CSI
Nc1ccccc1NC(=O)c1ccc(CN(CCCN2CCOCC2)C(=O)Nc2ncc([N+](=O)[O-])s2)cc1 [Compound 1-165, N-(2-Aminophenyl)-4-[1-(3-(morpholin-4-yl)propyl]-3-(5-nitrothiazol-2-yl)ureido-methyl]benzamide] | 0.578
CN(C)CCCN(Cc1ccc(C(=O)Nc2ccccc2N)cc1)C(=O)Nc1cccnc1 [Compound 1-104, N-(2-Aminophenyl)-4-[1-(3-dimethylaminopropyl)-3-(pyridin-3-yl)ureidomethyl]-benzamide] | 0.609
CN1CCCC1CCN(Cc1ccc(C(=O)Nc2ccccc2N)cc1)C(=O)Nc1ccc(F)c(F)c1 (stereo not drawn) [Compound 1-97, N-(2-Aminophenyl)-4-[3-(3,4-difluorophenyl)-1-[2-(1-methylpyrrolidin-2-yl)-ethyl]ureidomethyl]benzamide] | 0.595
CN1CCN(CCN(Cc2ccc(C(=O)Nc3ccccc3N)cc2)C(=O)Nc2ccc3c(c2)OCCO3)CC1 [Compound 1-94, N-(2-Aminophenyl)-4-[3-(2,3-dihydrobenzo[1,4]dioxin-6-yl)-1-[2-(4-methylpiper-azin-1-yl)ethyl]ureidomethyl] benzamide] | 0.595
CN(C)CCN(Cc1ccc(C(=O)Nc2ccccc2N)cc1)C(=O)NCCc1ccccc1 [Compound 1-4, N-(2-Aminophenyl)-4-[1-(2-dimethylaminoethyl)-3-phenethylureidomethyl]benz-amide] | 0.545
CNCCN(Cc1ccc(C(=O)Nc2ccccc2N)cc1)C(=O)Nc1ccc2c(c1)OCCO2 [Compound 1-23, N-(2-Aminophenyl)-4-[3-(2,3-dihydrobenzo[1,4]dioxin-6-yl)-1-(2-methylamino-ethyl)ureidomethyl]benzamide] | 0.534
CN(C)CCCCN(Cc1ccc(C(=O)Nc2ccccc2N)cc1)C(=O)Nc1ccc(N(C)C)cc1 [Compound 1-53, N-(2-Aminophenyl)-4-[1-(4-dimethylaminobutyl)-3-(4-dimethylaminoiphenyl)ureido-methyl]benzamide] | 0.538
CCN1CCCC1CN(Cc1ccc(C(=O)Nc2ccccc2N)cc1)C(=O)Nc1ccc2c(c1)OCCO2 (stereo not drawn) [Compound 1-50, N-(2-Aminophenyl)-4-[3-(2,3-dihydrobenzo[1,4]dioxin-6-yl)-1-(1-ethylpyrrolidin-2-ylmethyl)ureidomethyl] benzamide] | 0.617
COc1ccc(N)c(NC(=O)c2ccc(CN(CCN(C)C)C(=O)Nc3ccc4c(c3)CCC4)cc2)c1 [Compound 1-107, N-(2-Amino-5-methoxyphenyl)-4-[1-(2-dimethylamino-ethyl)-3-(indan-5-yl)ureod-methyl]benzamide] | 0.663
Nc1ccccc1NC(=O)c1ccc(CN(CCCN2CCOCC2)C(=O)Nc2ccsc2)cc1 [Compound 1-134, N-(2-Aminophenyl)-4-[1-(3-(morpholin-4-yl)propyl]-3-(thiophen-3-yl)ureido-methyl]benzamide] | 0.580
Nc1ccccc1NC(=O)c1ccc(CN(CCCN2CCOCC2)C(=O)Nc2ccc(OC(F)F)cc2)cc1 [Compound 1-60, N-(2-Aminophenyl)-4-[3-(4-difluoromethoxyphenyl)-1-[3-(morpholin-4-yl)propyl]ureidomethyl]benzamide] | 0.608
CC1CCN(CCCN(Cc2ccc(C(=O)Nc3ccccc3N)cc2)C(=O)Nc2ccc3c(c2)OCCO3)CC1 [Compound 1-128, N-(2-Aminophenyl)-4-[3-(2,3-dihydrobenzo[1,4]dioxin-6-yl)-1-[3-(4-methylpiper-idin-1-yl)propyl]ureido-methyl]benzamide] | 0.554
Nc1ccccc1NC(=O)c1ccc(CN(CC2CCNCC2)C(=O)Nc2ccc(Cl)cc2)cc1 [Compound 1-34, N-(2-Aminophenyl)-4-[3-(4-chlorophenyl)-1-(piperidin-4-ylmethyl)ureidomethyl] benzamide] | 0.681
CN(C)CCCN(Cc1ccc(C(=O)Nc2ccccc2N)cc1)C(=O)NCCc1ccccc1 [Compound 1-28, N-(2-Aminophenyl)-4-[1-(3-dimethylaminopropyl)-3-phenylethylureidomethyl]benz-amide] | 0.514
CN(C)CC(C)(C)CN(Cc1ccc(C(=O)Nc2ccccc2N)cc1)C(=O)Nc1ccc(CC#N)cc1 [Compound 1-38, N-(2-Aminophenyl)-4-[3-(4-cyanomethylphenyl)-1-(3-dimethylamino-2,2-dimethyl-propyl)ureidomethyl]benz-amide] | 0.616
COC(=O)c1ccc(NC(=O)N(CCCN(C)C)Cc2ccc(C(=O)Nc3ccccc3N)cc2)cc1 [Compound 1-46, N-(2-aminophenyl)-4-[1-(3-dimethylaminopropyl)-3-(4-methoxycarbonylphenyl)ureidomethyl]benzamide] | 0.581
Nc1ccccc1NC(=O)c1ccc(CN(CCCN2CCCC2)C(=O)Nc2ccc3c(c2)OCCO3)cc1 [Compound 1-169, N-(2-Aminophenyl)-4-[3-(2,3-dihydrobenzo[1,4]dioxin-6-yl)-1-[3-(pyrrolidin-1-yl)propyl]ureidomethyl]benz-amide] | 0.566
Nc1ccc(NC(=O)N(CCCN2CCOCC2)Cc2ccc(C(=O)Nc3ccccc3N)cc2)cc1 [Compound 1-66, N-(2-Aminophenyl)-4-[3-(4-aminophenyl)-1-[3-(mor-pholin-4-yl)propyl]ureidomethyl] benzamide] | 0.624
CNCCN(Cc1ccc(C(=O)Nc2ccccc2N)cc1)C(=O)NC1CCCC1 [Compound 1-22, N-(2-Aminophenyl)-4-[3-cyclo-pentyl-1-(2-methylamino-ethyl)ureidomethyl]benz-amide] | 0.619
COc1ccc(NC(=O)N(Cc2ccc(C(=O)Nc3ccccc3N)cc2)CC(C)(C)CN(C)C)cc1OC [Compound 1-36, N-(2-Aminophenyl)-4-[3-(3,4-dimethoxyphenyl)-1-(3-dimethylamino-2,2-dimethyl-propyl)ureidomethyl]benzamide] | 0.539
CCOC(=O)CNC(=O)N(CCCN(C)C)Cc1ccc(C(=O)Nc2ccccc2N)cc1 [Compound 2-4] | 0.664
CN(C)c1ccc(NC(=O)N(CCO)Cc2ccc(C(=O)Nc3ccccc3N)cc2)cc1 [Compound 1-47, N-(2-Aminophenyl)-4-[3-(4-dimethylaminophenyl)-1-(2-hydroxyethyol)ureidomethyl] benzamide] | 0.613
CN(C)c1ccc(NC(=O)N(CCCN2CCCC2=O)Cc2ccc(C(=O)Nc3ccccc3N)cc2)cc1 [Compound 1-43, N-(2-Aminophenyl)-4-[3-(4-dimethylaminophenyl)-1-[3-(pyrrolidin-2-on-1-yl)propyl]ureidomethyl]benzamide] | 0.679
Nc1ccccc1NC(=O)c1ccc(CN(CC(O)CO)C(=O)Nc2ccc3c(c2)CCC3)cc1 (stereo not drawn) [Compound 1-16, N-(2-Aminophenyl)-4-[1-(2,3-dihydroxypropyl)-3-(indan-5-yl)ureidomethyl]benz-amide] | 0.616
NCCCN(Cc1ccc(C(=O)Nc2ccccc2N)cc1)C(=O)Nc1ccc2c(c1)OCCO2 [Compound 1-39, N-(2-Aminophenyl)-4-[1-(3-aminopropyl)-3-(2,3-di-hydrobenzo[1,4]dioxin-6-yl)ureidomethyl]benzamide] | 0.615
CN(C)CCCN(Cc1ccc(C(=O)Nc2ccccc2N)cc1)C(=O)Nc1cccc(O)c1 [Compound 3-1, N-(2-Aminophenyl)-4-[1-(3-dimethylaminopropyl)-3-(3-hydroxyphenyl)ureidomethyl]benzamide] | 0.616
CN(C)c1ccc(NC(=O)N(CCCN2CCOCC2)Cc2ccc(C(=O)Nc3ccccc3N)cc2)cc1 [Compound 1-31, N-(2-Aminophenyl)-4-[3-(4-dimethylaminophenyl)-1-[3-(morpholin-4-yl)propyl]ureidomethyl]benzamide] | 0.632
